# Values of other authors in article PMC11243490, “Enzymatic Fructosylation of Phenolic Compounds: A New Alternative for the Development of Antidiabetic Drugs” (Molecules, 2024).
# Tests used:
# CYP1A2 = tested on: CYP1A2; design: method as in PMID 27518169; settings: human liver microsomes
# CYP2C9 = tested on: CYP2C9; design: method as in PMID 27518169; settings: human liver microsomes
# [1] = design: method as in PMID 30638505, PMID 33992405, doi:10.1016/j.imu.2022.100880; settings: reported properties
# [2] = design: method as in PMID 30638505, PMID 33992405, doi:10.1016/j.imu.2022.100880; settings: reported properties; remark: listed apart in the source
# [3] = reported properties
# [4] = design: method as in PMID 30638505, PMID 33992405, doi:10.1016/j.imu.2022.100880; settings: reported properties; remark: listed apart in the source
# [5] = tested on: EGFR, SRC, ESR1, and HSP90AA1 diabetic proteins; design: method as in PMID 37754241; settings: range over EGFR
# [6] = tested on: key proteins in type 2 diabetes; design: method as in PMID 32258479; settings: strongest interactions
SMILES,DPPH % Free Radical Scavenging Activity [3] [%],Solubility [4] [µg/mL],other results
"O=C(O[C@@H]1Cc2c(O)cc(O)cc2O[C@@H]1c1cc(O)c(O)c(O)c1)c1cc(O)c(O)c(O)c1 [EGCG, epigallocatechin gallate]",–,–,inhibition of CYP1A2 (CYP1A2): 8.93 µM; inhibition of CYP2C9 (CYP2C9): 7.60 µM
"COc1cc(C=CC(=O)O)ccc1O [FA, 4-hydroxy-3-methoxycinnamic acid]",70.04 ± 2.3,–,ABTS % Free Radical Scavenging Activity [1]: 90.69 ± 0.14%; NO % Free Radical Scavenging Activity [2]: 22.21 ± 1.39%
"COc1cc(/C=C/C(=O)OC2(CO)OCC(O)C(O)C2O)ccc1O [MFF, β-D-Fructopyranosyl-β-(2→6)-ferulate]",17.16 ± 0.81,8690 ± 450,ABTS % Free Radical Scavenging Activity [1]: 90.95 ± 0.18%; NO % Free Radical Scavenging Activity [2]: 3.27 ± 1.02%
"O=c1c(-c2ccc(O)cc2)coc2c(C3OC(COC4(CO)OC(CO)C(O)C4O)C(O)C(O)C3O)c(O)ccc12 [MFP, β-D-fructofuranosyl-β-(2→6)-puerarin]",26.2 ± 1.3,16200 ± 1700,–
"O=C(CCc1ccc(O)cc1)c1c(O)cc(O)cc1OC1OC(COC2(CO)OC(CO)C(O)C2O)C(O)C(O)C1O [MFPh, β-D-fructofuranosyl-β-(2→6)-phlorizin]",44.56 ± 8.4,30570 ± 100,–
"O=C(CCc1ccc(O)cc1)c1c(O)cc(O)cc1O[C@@H]1O[C@H](CO)[C@@H](O)[C@H](O)[C@H]1O [PH, phloretin-2′-β-D-glucopyranoside]",62.13 ± 1.8,1930 ± 30,–
"O=c1c(-c2ccc(O)cc2)coc2c([C@@H]3O[C@H](CO)[C@@H](O)[C@H](O)[C@H]3O)c(O)ccc12 [PU, daidzein-8-C-glucoside]",33.3,700 ± 90,–
CCCCCc1cc(O)c2c(c1)OC(C)(C)c1ccc(C)cc1-2 [cannabinol],–,–,free binding energy [5]: -7.44 to -6.38 kcal/mol
OC[C@H]1O[C@@H](Oc2cc3c(O)cc(O)cc3[o+]c2-c2ccc(O)c(O)c2)[C@H](O)[C@@H](O)[C@@H]1O [cyanidin 3-glucoside],–,–,free binding energies [6]: −7.3 to −6.10
OC[C@H]1O[C@@H](Oc2cc3c(O)cc(O)cc3[o+]c2-c2cc(O)c(O)c(O)c2)[C@H](O)[C@@H](O)[C@@H]1O [delphinidin 3-glucoside],–,–,free binding energies [6]: −7.3 to −6.10
